Test results published in the NIST ThermoML archive (doi:10.1021/acs.jced.8b00008).

Conditions: for viscosity / speed of sound / mass density: 102 kPa, Liquid; for viscosity: Concentric cylinders viscometry; for speed of sound: Single path-length method; for mass density: Vibrating tube method; for surface tension liquid-gas: Pendant drop shape

CCCCCCCCCCCCCCCC [hexadecane]
Conditions | mass density [kg/m3] | speed of sound [m/s] | surface tension liquid-gas [mN/m] | viscosity [mPa·s]
293.15 K | 773.37 | 1357.4 | – | 3.47
296.1 K | – | – | 26.9 | –
298.15 K | 769.89 | 1338.6 | – | 3.06
303.15 K | 766.43 | 1319.7 | – | 2.76
313.15 K | 759.51 | 1282.9 | – | 2.23
323.15 K | 752.6 | 1247.1 | – | 1.86
333.15 K | 745.69 | 1212.2 | – | 1.56

CCC1CCCCC1 [ethylcyclohexane]
Conditions | mass density [kg/m3] | speed of sound [m/s] | surface tension liquid-gas [mN/m] | viscosity [mPa·s]
293.15 K | 787.98 | 1292.9 | – | 0.858
295.6 K | – | – | 25.3 | –
303.15 K | 779.91 | 1249.9 | – | 0.725
313.15 K | 771.79 | 1208 | – | 0.649
323.15 K | 763.6 | 1166.9 | – | 0.572
333.15 K | 755.36 | 1126.9 | – | 0.504

CC1CCCCC1 [methylcyclohexane]
Conditions | mass density [kg/m3] | speed of sound [m/s] | surface tension liquid-gas [mN/m] | viscosity [mPa·s]
291.1 K | – | – | 23.7 | –
293.15 K | 769.3 | 1236.5 | – | 0.74
298.15 K | 764.99 | 1214.5 | – | 0.685
303.15 K | 760.64 | 1192.3 | – | 0.633
313.15 K | 751.92 | 1149.2 | – | 0.572
323.15 K | 743.13 | 1106.9 | – | 0.489
333.15 K | 734.25 | 1065.7 | – | 0.44

CCCCCCCCCCCC [dodecane]
Conditions | mass density [kg/m3] | speed of sound [m/s] | surface tension liquid-gas [mN/m] | viscosity [mPa·s]
293.15 K | 748.73 | 1297.7 | – | 1.49
294.6 K | – | – | 25 | –
298.15 K | 745.11 | – | – | 1.36
303.15 K | 741.77 | 1259 | – | 1.26
313.15 K | 734.87 | 1221.1 | – | 1.06
323.15 K | 726.88 | 1183.9 | – | 0.925
333.15 K | 719.53 | 1147.6 | – | 0.795
